Test results taken from patent publication US11434490B2, “Fluorogen-binding RNA aptamers” (CENTRE NATIONAL DE LA RECHERCHE SCIENTIFIQUE, priority 2017, dated 2022).

B1: Mango II - A22U: Mango-II point mutant; SEQ ID NO: 6903 / 6905 (nucleic acid)
chain 1: GCGUACGAAGGAGAGGAGAGGUAGAGGAGAGUACGC
chain 2: GGCACGUACGAAGGAGAGGAGAGGUAGAGGAGAGUACGUGC
modifications: chemistry not given here

Columns and labels:
[1] = Fluorescence titration, binding affinity for TO1-Biotin; conditions: for Kd: ligand TO1-B (TO1-Biotin)
Excerpt: FIG. 2|RNA Mango I, II, III and IV core sequences and their properties. (a) Color coded alignment of RNA Mango I, II, III and IV. G residues in yellow are protected from DMS cleavage (data from panel d) when folded in the presence of fluorophore. Quadruplex stacks and their associated propeller sequences are numbered 1 through 4. The GAAA isolation motif of Mango I, together with two adenines essential for binding, are shown in green and red respectively. Purple shading represents a flanking stem region common for all four Mango aptamers. Schematic: A tertiary structure schematic of Mango I, showing tier 1, 2 and 3 of its quadruplex structure (T1, T2 and T3) and color-coded as in (a). […] Bottom: Top view of the Mango I core (PBD ID: 5V3F), showing the T3 tier of the quadruplex and relevant propeller residues, color coding matches the schematic and panel a. […] KD values are shown next to each titration. (c) Same as for panel b but using 20 nM TO3-Biotin. Data for panels b and c have been normalized such that Mango I has a maximum fluorescence of 1. Error bars are standard deviation of three replicates. (d) DMS chemical protection patterns for the four Mango aptamers. 3′ end-labelled RNA (terminal ^32pCp shown as a black asterisk) was subjected to DMS chemical modification followed by reduction by NaBH4 and aniline cleavage as described in the methods. […] Legend: T1—denatured T1 ladder; OH—partial alkaline hydrolysis ladder; (−) DMS—denatured reaction with ddH2O added in place of DMS; 80° C.
Fluorescence data was gathered using a Varian Cary Eclipse Spectrophotometer unless otherwise stated. […] Fluorescence was measured at the maximum excitation and emission wavelengths of each complex (FIG. 13).
Where F([RNA]) is the fluorescence as a function of RNA concentration [RNA], Fmax is the maximal fluorescence of the bound complex and Funbound the fluorescence of the unbound fluorophore. When the fluorescence of Funbound was undetectable, it was set to zero.
(§1) Fluorescence readings were recorded using a Varian Cary Eclipse Spectrophotometer set to measure at the maximum excitation and emission wavelengths of the Mango II aptamer dye complex. Fluorescence titrations were performed in Mango selection buffer (WB: 140 mM KCl, 1 mM MgCl2, 10 mM NaH2PO4 pH 7.2, 0.05% Tween-20).

[2] = Fluorescence lifetime measurements (TCSPC); assay type: physicochemical; conditions: for α1 (%): amplitude of τ1; for α2 (%): amplitude of τ2; for τi (ns), intensity-weighted average lifetime / τa (ns), amplitude-weighted average lifetime: calculated from the components; for τ1 (ns) / τ2 (ns): free TO1-Biotin or RNA bound to TO1-Biotin
Procedure: Fluorophore lifetime measurements were performed by using an in-house modified 2-photon fluorescence microscope based on a Zeiss LSM 510 unit capable of Time-Correlated Single-Photon Counting (TCSPC) measurements. A diode-pumped solid state laser (Millenia Prime, Spectra Physics, Newport, Calif.) was used to pump a Ti:Sapphire Tsunami oscillator (Model 3960C, Spectra Physics, Newport, Calif.), operating in femtosecond mode, at a repetition rate of 80 MHz, and tunable in the near infrared region. The output beam of the Ti:Sapphire laser was directed into an acousto-opto modulator (MT110/B50/A1.5 IR/S, AA Optoelectronic, France), controlled through the Zeiss LSM electronics and software, to attenuate the power before steering it into the LSM unit. The beam was reflected onto a 700/488 dichroic mirror and directed into the back aperture of a Plan Apochromat 63×, NA 1.4, oil immersion objective, and expanded to fill the back pupil. The fluorescence from the sample was collected from the same objective, intercepted by a 733LP dichroic mirror, sent toward the back port of the microscope, filtered through an ET700SP-2P filter (Chroma Technologies, Bellows Falls, Vt.) to remove residual scattering from the laser, and further passed through a 540/50 nm bandpass filter (Semrock, Rochester, N.Y.). The fluorescence is finally focused onto the photocathode of a H7422P-40 GaAsP photomultiplier detector (Hamamatsu, Japan). The large NA of the objective contributes to a certain degree of depolarization of the incoming excitation beam, as well as of the detected fluorescence. According to Fisz (J. Chem. Phys. A, 2007 and 2009), this would allow one to omit an analyzer (polarizer) in front of our detector, because magic angle conditions are achieved by using a 45° angle detection (i.e. unpolarized) configuration. The signal from the detector and the synchronization signal from the laser are directed into an SPC150 photon counting card (Becker & Hickl, Germany), controlled by the SPCM64 proprietary software from the manufacturer (Becker & Hickl, Germany). The data were collected with a 12.5 ns time window in TCSPC histogramming mode with 1024 channels, with a width of 12.2 ps each.
For the experiments the laser was tuned at 780 nm, and the power adjusted to 18 mW before the objective lens. RNA samples were diluted to a concentration of ˜3-5 μM in buffer. TO-1B was measured at a concentration of 50 μM due to low fluorescence signal of the compound, compared to the RNA-bound version. An 80 μl droplet was deposited onto a #1.5 coverslip, previously treated with BSA to avoid nonspecific binding of RNA to the glass, and covered to avoid evaporation. The excitation was focused ˜5 μm above the upper surface of the coverslip to reduce scatter and to avoid collecting signal from molecules immobilized on the glass surface. The beam was kept stationary by using the LSM controller to simply open the excitation shutter, and data were collected until the maximum count in the peak channel of the TCSPC histogram reached 10^4 photons. Experiments were repeated in triplicate. An instrument response function (IRF) was collected on every day of measurement by recording the second harmonic generation (SHG) signal from crushed urea crystals deposited onto a glass coverslip, in this case the bandpass filter before the detector was substituted with a 440 nm short pass filter to collect the 390 nm SHG. The data collected with the SPCM64 software were stored as *.sdt files for subsequent analysis.
Data were analyzed using the SPCImage software (Becker & Hickl, Germany). The fluorescence decay curves were fit using exponential functions of the form:
Where n is at most equal to 3 in our software. The data fitting routine uses a least-square algorithm where the exponential function is first reconvoluted with the measured IRF and then fit to the data. The shift of the IRF for each dataset, as well as a scatter contribution were included as free parameters during fitting. […]

[3] = Fluorescence titration, binding affinity for TO1-OAc; conditions: ligand TO1-OAc
Excerpt: (§2) We determined the affinity and fluorescence enhancement of four compounds: TO1-OAc (TO1-acetate), TO1-ME (TO1-methylester), TO1-PA (TO1-propanylamide), TO1-PE (TO1-pentenoylester) (FIG. 42, Table 8 & 9). Binding affinity and fluorescence enhancement of TO1-OAc is drastically diminished, and nearly identical between the wild-type and A22U mutant. […] Further extension of the linker stabilizes the binding pocket by stacking on T3 but becomes sterically hindered by a bulky purine in position 22. The A22U mutation would limit steric clashes while preventing misfolding of the G-quadruplex core. Thus, the improved properties of the Mango-II A22U mutant may arise from improved packing of the linker of the fluorophore with an RNA with a homogeneous or predominant conformation.
as §1

[4] = Fluorescence titration, binding affinity for TO1-PE; conditions: ligand TO1-PE
Excerpt: as §2, §1

Row | Molecule | TO1-Biotin binding affinity (in words) [1] | Kd [1] [nM] | α1 (%) [2] [%] | α2 (%) [2] [%] | τi (ns), intensity-weighted average lifetime [2] [ns] | τa (ns), amplitude-weighted average lifetime ([2]; listed as Mango II wt) [ns] | τa (ns), amplitude-weighted average lifetime ([2]; listed as wild-type Mango-II) | τ1 (ns) ([2]; listed as Mango II wt) | τ2 (ns) ([2]; listed as Mango II wt) | τ1 (ns) ([2]; listed as wild-type Mango-II) | τ2 (ns) ([2]; listed as wild-type Mango-II) | Kd [3] [nM] | Kd [4] [nM] | τa (ns), amplitude-weighted average lifetime [2] [ns] | τa (ns), amplitude-weighted average lifetime ([2]; listed as A22U mutant) | τ1 (ns) [2] [ns] | τ2 (ns) [2] [ns] | τ1 (ns) ([2]; listed as A22U mutant) | τ2 (ns) ([2]; listed as A22U mutant)
1 | Mango-II: minimal construct engineered from isolate R2-1; SEQ ID NO: 6902 GCGUACGAAGGAGAGGAGAGGAAGAGGAGAGUACGC (chemistry not given here) | subnanomolar affinity | 1.1 ± 0.3 | 45 | 55 | 2.05 | 1.51 | 1.51 (±0.06) ns | 0.52 | 2.33 | 0.52 (±0.02) ns | 2.33 (±0.12) ns | 56 ± 2 | 0.37 ± 0.06 |  |  |  |  |  | 
2 | B1 |  | 0.9 ± 0.4 | 45 | 55 | 2.53 |  |  |  |  |  |  | 43 ± 3 | 1 ± 0.13 | 1.92 | 1.92 (±0.03) ns | 0.72 | 2.904 | 0.72 (±0.01) ns | 2.904 (±0.001) ns
